The source of these data is patent US20220402961A1 (BONTAC BIO-ENGINEERING(SHENZHEN) CO.,LTD, priority 2021, published 2022).

For this data set the following is noted: screened with a sieve (1.00 mm, No. 18), poured into glass graduated measuring cylinder, apparent volume. As to the method:
The tops were scraped flat. The apparent volumes were recorded. The bulk densities were calculated.

Consider `NC(=O)c1ccc[n+]([C@@H]2O[C@H](COP(=O)([O-])O)[C@@H](O)[C@H]2O)c1` [Form 1, nicotinamide mononucleotide anhydrous crystal (form 1)], for which the Bulk density came to 0.15 g/mL.
